# Data: PubChem BioAssay (NCI)
#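 Exposure lasted 48 hours, with cells grown in 96-well plates and compounds tested at five concentrations. At the TGI there is no net growth.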
# Key:
# Test in all cases: NCI-60 cell line screen, 48 h
# A498 renal = tested on: A498 renal
# ACHN renal = tested on: ACHN renal
# BT-549 breast = tested on: BT-549 breast
# DU-145 prostate = tested on: DU-145 prostate
# HS 578T breast = tested on: HS 578T breast
# IGROV1 ovarian = tested on: IGROV1 ovarian
# K-562 leukemia = tested on: K-562 leukemia
# MALME-3M melanoma = tested on: MALME-3M melanoma
# MDA-MB-435 = tested on: MDA-MB-435
# MDA-N = tested on: MDA-N
# NCI-H226 lung = tested on: NCI-H226 lung
# PC-3 prostate = tested on: PC-3 prostate
# SF-539 CNS = tested on: SF-539 CNS
# SW-620 colon = tested on: SW-620 colon
# T-47D breast = tested on: T-47D breast
# EKVX NSCLC = tested on: EKVX NSCLC
# HL-60(TB) leukemia = tested on: HL-60(TB) leukemia
# KM20L2 colon = tested on: KM20L2 colon
# XF 498 CNS = tested on: XF 498 CNS
# LOX IMVI melanoma = tested on: LOX IMVI melanoma
Structure (SMILES),TGI (A498 renal) [µM],TGI (ACHN renal) [µM],TGI (BT-549 breast) [µM],TGI (DU-145 prostate) [µM],TGI (HS 578T breast) [µM],TGI (IGROV1 ovarian) [µM],TGI (K-562 leukemia) [µM],TGI (MALME-3M melanoma) [µM],TGI (MDA-MB-435) [µM],TGI (MDA-N) [µM],TGI (NCI-H226 lung) [µM],TGI (PC-3 prostate) [µM],TGI (SF-539 CNS) [µM],TGI (SW-620 colon) [µM],TGI (T-47D breast) [µM],TGI (EKVX NSCLC) [µM],TGI (HL-60(TB) leukemia) [µM],TGI (KM20L2 colon) [µM],TGI (XF 498 CNS) [µM],TGI (LOX IMVI melanoma) [µM]
CC(=O)N1N=C(c2ccc3ccccc3c2O)CC1c1cccs1 (centres undefined),44.5,> 100,83.9,> 100,> 100,> 100,22.5,> 100,> 100,> 100,> 100,> 100,89.2,> 100,> 100,,,,,
O=C1C(Cl)N(c2cccc(Cl)c2)C1c1c[nH]c2ccccc12 (centres undefined),,,,,,> 100,> 100,> 100,,,,,> 100,> 100,,> 100,> 100,> 100,> 100,
CC[C@@H]1ON(C)[C@H]2CN(C)C(=O)[C@@H]12,,> 100,,> 100,> 100,> 100,> 100,,> 100,> 100,> 100,> 100,,> 100,> 100,,> 100,,,> 100
COc1ccc(-c2csc(=Nc3ccccc3)n2CCCN(C)C)cc1,49.2,48.6,37.3,,,,,,65.3,> 100,38.1,30.2,32,,,,> 100,,,
COc1cc(C2S/C(=C/c3ccccc3)C(=O)N2c2ccc(NC(C)=O)cc2)cc(OC)c1OC (centres undefined),67.3,77.8,65.4,,83.2,,> 100,55.6,62.4,63.4,,48.1,,,55.1,38.4,,,,63.7
COc1ccc2c(c1O)-c1cc(O)cc3c1[C@@H](C2)N(C)CC3,125,,,,,139,241,126,,,108,,153,145,,187,191,31.2,160,142
CCOC1=NC(C(F)(F)F)(C(F)(F)F)N=C(N2CCOCC2)O1,,> 100,> 100,> 100,> 100,> 100,,,> 100,> 100,,> 100,> 100,> 100,> 100,> 100,> 100,,,> 100
